# In ChEMBL document CHEMBL1201862, “PubChem BioAssay data set” (2004):
# The source made the active and inactive calls.
# Key:
# Hexokinase HKDC1 = biological target: T1, Hexokinase HKDC1 (Homo sapiens, UniProt Q2TB90); experiment: activation of HKDC1 glucose phosphorylation – biochemical, W721R variant, dose response (AID 504730); assay type: functional
# T1 sequence (Q2TB90 whole entry): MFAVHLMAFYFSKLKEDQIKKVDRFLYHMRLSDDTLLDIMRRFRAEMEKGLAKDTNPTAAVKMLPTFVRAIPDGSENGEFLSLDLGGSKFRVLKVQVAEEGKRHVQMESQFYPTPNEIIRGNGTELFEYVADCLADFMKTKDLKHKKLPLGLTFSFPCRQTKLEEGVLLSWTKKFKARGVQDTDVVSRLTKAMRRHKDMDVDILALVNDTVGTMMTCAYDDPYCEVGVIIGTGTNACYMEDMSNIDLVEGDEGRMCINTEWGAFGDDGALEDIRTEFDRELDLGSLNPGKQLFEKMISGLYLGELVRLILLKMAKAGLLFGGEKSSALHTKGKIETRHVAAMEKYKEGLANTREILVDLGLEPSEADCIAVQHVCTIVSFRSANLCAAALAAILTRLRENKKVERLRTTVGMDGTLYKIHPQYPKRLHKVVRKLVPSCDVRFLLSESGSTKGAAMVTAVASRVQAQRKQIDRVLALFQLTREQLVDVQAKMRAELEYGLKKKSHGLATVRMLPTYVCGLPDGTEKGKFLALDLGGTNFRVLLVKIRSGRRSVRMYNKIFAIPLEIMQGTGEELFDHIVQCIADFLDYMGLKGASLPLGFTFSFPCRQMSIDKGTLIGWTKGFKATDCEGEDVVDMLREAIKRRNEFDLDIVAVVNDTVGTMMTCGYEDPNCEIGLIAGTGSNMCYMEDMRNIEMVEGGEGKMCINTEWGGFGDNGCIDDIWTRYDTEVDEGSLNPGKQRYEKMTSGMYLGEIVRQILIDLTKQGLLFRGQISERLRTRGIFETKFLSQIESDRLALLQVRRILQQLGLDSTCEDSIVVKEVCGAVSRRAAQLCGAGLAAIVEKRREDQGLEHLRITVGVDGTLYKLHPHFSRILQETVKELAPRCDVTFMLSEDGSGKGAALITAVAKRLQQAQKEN
# Hexokinase-1 = Hexokinase-1 (Homo sapiens, UniProt P19367); experiment: HK1 enzyme activation by HKDC1 hits – biochemical, selectivity assay for HKDC1 activator project, dose response (AID 504762); assay type: functional
# Sequence of Hexokinase-1 (P19367 whole entry): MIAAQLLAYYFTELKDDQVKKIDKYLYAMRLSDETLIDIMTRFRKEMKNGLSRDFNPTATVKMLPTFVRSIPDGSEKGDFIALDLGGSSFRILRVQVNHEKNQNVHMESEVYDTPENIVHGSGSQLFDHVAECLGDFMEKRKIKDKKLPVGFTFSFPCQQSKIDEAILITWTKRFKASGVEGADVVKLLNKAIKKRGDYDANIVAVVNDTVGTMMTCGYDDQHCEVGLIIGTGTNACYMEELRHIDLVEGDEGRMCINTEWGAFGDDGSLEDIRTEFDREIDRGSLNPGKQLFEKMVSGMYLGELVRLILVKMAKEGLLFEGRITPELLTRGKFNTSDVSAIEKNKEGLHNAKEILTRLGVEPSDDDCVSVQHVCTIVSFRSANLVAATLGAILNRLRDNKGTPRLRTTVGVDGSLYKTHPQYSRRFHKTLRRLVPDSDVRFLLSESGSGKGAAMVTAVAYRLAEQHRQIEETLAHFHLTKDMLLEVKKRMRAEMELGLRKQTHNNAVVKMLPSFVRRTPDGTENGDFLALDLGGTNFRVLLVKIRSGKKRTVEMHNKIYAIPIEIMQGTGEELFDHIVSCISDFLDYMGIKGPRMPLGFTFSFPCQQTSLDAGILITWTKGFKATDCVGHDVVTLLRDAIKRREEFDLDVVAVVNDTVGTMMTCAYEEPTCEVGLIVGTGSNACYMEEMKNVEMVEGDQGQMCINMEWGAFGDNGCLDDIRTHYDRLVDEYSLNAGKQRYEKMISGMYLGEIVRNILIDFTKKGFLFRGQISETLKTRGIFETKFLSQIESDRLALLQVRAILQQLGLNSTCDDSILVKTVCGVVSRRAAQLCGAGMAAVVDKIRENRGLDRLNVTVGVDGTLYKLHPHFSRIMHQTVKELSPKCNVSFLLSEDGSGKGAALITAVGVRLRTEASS
# [1] = biological target: Glucose-6-phosphate 1-dehydrogenase (Homo sapiens, UniProt P11413); experiment: inhibition of Homo sapiens G6PD, dose series – biochemical, fluorescence, selectivity assay for P. falciparum G6PD inhibitor project, dose response (AID 504792); assay type: functional
# Sequence of Glucose-6-phosphate 1-dehydrogenase (P11413 whole entry): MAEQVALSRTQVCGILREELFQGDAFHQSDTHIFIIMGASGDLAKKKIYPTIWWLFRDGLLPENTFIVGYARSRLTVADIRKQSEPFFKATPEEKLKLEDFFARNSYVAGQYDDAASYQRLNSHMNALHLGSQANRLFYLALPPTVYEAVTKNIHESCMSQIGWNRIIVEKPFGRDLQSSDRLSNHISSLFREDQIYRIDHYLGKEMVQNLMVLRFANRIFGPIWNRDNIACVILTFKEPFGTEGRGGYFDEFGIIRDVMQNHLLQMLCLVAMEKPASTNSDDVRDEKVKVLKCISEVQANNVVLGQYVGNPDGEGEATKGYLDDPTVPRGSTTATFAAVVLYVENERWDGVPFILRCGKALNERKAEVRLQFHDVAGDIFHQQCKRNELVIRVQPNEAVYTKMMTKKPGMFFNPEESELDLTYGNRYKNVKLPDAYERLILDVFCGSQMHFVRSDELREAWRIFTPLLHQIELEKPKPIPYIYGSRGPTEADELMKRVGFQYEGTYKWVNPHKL
# [2] = biological target: T2, Dual specificity protein phosphatase 6 (Rattus norvegicus, UniProt Q64346)
# T2 sequence (Q64346 whole entry): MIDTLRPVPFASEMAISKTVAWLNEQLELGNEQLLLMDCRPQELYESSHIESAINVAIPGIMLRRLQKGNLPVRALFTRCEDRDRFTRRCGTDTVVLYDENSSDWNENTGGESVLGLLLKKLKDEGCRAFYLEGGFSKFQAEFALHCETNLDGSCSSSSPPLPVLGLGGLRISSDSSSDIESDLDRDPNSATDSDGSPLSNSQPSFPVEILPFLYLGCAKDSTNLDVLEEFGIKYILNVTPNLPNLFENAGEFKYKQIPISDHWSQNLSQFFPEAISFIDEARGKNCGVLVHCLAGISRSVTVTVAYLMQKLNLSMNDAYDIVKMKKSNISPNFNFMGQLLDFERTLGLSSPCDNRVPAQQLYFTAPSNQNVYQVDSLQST
# [3] = biological target: Glyceraldehyde-3-phosphate dehydrogenase (Homo sapiens, UniProt P04406)
# Sequence of Glyceraldehyde-3-phosphate dehydrogenase (P04406 whole entry): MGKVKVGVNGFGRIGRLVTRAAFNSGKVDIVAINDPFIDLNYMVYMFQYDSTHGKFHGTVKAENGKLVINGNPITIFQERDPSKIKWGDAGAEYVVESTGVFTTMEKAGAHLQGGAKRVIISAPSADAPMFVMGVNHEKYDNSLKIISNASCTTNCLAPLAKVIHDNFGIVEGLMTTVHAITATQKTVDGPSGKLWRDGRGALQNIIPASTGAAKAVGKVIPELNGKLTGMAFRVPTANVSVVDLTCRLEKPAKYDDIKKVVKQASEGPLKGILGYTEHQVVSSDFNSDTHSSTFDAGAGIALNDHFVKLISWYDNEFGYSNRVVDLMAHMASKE
# [4] = biological target: T3, Tyrosine-protein phosphatase non-receptor type 7 (Homo sapiens, UniProt P35236); experiment: redox-active compounds inhibiting HePTP phosphatase – biochemical, fluorescence, mechanism study (AID 2068); assay type: functional
# T3 sequence (P35236 whole entry): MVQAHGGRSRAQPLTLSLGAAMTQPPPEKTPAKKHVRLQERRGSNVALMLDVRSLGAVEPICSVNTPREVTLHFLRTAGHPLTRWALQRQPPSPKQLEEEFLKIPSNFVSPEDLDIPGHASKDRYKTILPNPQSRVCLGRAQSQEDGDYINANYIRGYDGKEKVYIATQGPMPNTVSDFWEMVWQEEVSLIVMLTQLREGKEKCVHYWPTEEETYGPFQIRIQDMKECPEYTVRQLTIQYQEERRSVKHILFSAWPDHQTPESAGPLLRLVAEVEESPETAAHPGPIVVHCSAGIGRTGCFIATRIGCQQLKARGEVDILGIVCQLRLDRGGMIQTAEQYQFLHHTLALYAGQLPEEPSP
# [5] = biological target: Dual specificity protein phosphatase 3 (Homo sapiens, UniProt P51452); experiment: SAR VHR1 Fluorescent Assay for In Vitro dose response studies. [Related pubchem assays (depositor defined):AID1654, AID1661, AID1878, AID1992, AID2004, AID2070, AID2085]; assay type: functional
# Ephrin type-A receptor 4 = Ephrin type-A receptor 4 (Mus musculus, UniProt Q03137); experiment: EphA4 ligand-binding antagonists – biochemical, colorimetric, mouse EphA4, primary screen (AID 689); assay type: functional
# Sequence of Ephrin type-A receptor 4 (Q03137 whole entry): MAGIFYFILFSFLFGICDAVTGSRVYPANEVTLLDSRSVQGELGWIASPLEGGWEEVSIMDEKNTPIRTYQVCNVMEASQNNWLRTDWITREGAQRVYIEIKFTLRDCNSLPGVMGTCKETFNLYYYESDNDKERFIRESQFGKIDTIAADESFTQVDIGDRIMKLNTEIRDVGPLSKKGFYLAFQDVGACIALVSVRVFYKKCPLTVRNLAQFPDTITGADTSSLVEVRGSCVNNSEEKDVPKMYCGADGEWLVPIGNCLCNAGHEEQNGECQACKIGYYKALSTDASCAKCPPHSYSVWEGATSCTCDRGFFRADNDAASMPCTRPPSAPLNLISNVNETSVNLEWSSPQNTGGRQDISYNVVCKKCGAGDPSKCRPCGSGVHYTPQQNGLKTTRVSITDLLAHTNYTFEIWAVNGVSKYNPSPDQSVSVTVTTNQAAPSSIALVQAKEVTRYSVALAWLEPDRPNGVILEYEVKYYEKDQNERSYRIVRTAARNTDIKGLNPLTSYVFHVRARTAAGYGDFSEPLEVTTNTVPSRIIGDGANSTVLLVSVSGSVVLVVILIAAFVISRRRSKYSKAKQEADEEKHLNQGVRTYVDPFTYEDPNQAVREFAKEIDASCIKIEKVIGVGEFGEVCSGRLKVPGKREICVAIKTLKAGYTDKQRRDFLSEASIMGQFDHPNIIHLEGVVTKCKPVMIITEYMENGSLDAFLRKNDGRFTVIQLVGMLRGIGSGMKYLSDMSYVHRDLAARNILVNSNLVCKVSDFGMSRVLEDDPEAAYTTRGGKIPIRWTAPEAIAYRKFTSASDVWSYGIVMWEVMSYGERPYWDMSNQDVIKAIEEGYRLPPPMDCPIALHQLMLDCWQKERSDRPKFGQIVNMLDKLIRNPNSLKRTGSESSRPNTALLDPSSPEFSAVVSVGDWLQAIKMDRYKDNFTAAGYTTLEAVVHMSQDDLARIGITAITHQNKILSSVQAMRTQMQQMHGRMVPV
# [6] = biological target: T2, Dual specificity protein phosphatase 6; assay type: functional
# [7] = viability loss of HPDE-C7K cells – cell-based, fluorescence, HTS, primary screen (AID 431); assay type: functional; details: Homo sapiens
# [8] = HPDE-C7 pancreatic duct cell viability loss – fluorescence, HTS (AID 430); assay type: functional, cell-based; details: Homo sapiens
# Large T antigen = Large T antigen (Simian virus 40, UniProt P03070); assay type: functional, Betapolyomavirus macacae;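 note: Confirmatory-stage PubChem screen for compounds that inhibit SV40 T antigen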
# Phospholipase A2 = Phospholipase A2 (Homo sapiens, UniProt P04054); assay type: functional;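 note: confirmatory dose-response counterscreen on phospholipase A2, testing hits that came from an ultra-high-throughput screen for ATG4B inhibitors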
# Sequence of Phospholipase A2 (P04054 whole entry): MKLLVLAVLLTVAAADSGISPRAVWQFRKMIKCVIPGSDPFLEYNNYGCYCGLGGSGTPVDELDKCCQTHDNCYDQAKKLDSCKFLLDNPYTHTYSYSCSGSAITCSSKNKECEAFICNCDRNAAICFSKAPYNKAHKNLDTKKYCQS
# [9] = biological target: T3, Tyrosine-protein phosphatase non-receptor type 7; assay type: functional
# Cysteine protease ATG4B = biological target: T4, Cysteine protease ATG4B (Homo sapiens, UniProt Q9Y4P1); assay type: functional;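 note: Fluorescence-based dose-response confirmation assay measuring inhibition of ATG4B activity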
# T4 sequence (Q9Y4P1 whole entry): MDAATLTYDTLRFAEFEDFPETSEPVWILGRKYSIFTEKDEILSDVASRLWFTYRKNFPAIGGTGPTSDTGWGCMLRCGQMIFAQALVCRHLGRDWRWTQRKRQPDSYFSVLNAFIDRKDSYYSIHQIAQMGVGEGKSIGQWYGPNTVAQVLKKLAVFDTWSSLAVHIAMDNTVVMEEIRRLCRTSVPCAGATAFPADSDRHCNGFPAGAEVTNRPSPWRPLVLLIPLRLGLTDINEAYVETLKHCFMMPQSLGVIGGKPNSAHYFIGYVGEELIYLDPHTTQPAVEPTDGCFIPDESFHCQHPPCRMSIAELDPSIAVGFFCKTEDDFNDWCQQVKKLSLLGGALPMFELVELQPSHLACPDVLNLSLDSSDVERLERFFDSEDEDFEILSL
# Coagulation factor XII = biological target: T5, Coagulation factor XII (Homo sapiens, UniProt P00748); experiment: Factor XIIa Dose Response Confirmation from Single Well HTS. [Related pubchem assays (depositor defined):AID701]; assay type: functional
# T5 sequence (P00748 whole entry): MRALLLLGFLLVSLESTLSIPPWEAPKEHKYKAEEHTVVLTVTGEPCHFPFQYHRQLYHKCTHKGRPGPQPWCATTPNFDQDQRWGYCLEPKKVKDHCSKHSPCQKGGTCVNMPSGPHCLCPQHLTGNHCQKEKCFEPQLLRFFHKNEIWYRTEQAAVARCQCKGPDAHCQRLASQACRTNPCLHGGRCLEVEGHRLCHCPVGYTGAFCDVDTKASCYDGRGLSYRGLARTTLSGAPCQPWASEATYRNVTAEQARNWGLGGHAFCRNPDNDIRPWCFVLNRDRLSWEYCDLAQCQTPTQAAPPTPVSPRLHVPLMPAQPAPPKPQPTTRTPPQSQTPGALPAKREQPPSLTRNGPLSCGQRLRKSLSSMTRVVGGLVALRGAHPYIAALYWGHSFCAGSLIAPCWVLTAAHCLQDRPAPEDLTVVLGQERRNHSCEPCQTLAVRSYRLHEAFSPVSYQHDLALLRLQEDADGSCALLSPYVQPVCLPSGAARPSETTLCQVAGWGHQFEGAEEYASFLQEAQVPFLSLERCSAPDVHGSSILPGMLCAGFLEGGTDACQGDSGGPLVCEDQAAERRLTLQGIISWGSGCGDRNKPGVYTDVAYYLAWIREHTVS
# T-cell = experiment: loss of vesicle association with mouse CD8+ T cells – mouse 2C CD8+ T cells, flow cytometry, dose response (AID 485284); assay type: functional
# Ion channel NompC = Ion channel NompC (Danio rerio, UniProt Q7T1G6); experiment: Dose response cell-based high-throughput screening assay for agonists of the transient receptor potential channel N1 (TRPN1). [Related pubchem assays (depositor defined):AID1424, AID1448]; assay type: functional
# Sequence of Ion channel NompC (Q7T1G6 whole entry): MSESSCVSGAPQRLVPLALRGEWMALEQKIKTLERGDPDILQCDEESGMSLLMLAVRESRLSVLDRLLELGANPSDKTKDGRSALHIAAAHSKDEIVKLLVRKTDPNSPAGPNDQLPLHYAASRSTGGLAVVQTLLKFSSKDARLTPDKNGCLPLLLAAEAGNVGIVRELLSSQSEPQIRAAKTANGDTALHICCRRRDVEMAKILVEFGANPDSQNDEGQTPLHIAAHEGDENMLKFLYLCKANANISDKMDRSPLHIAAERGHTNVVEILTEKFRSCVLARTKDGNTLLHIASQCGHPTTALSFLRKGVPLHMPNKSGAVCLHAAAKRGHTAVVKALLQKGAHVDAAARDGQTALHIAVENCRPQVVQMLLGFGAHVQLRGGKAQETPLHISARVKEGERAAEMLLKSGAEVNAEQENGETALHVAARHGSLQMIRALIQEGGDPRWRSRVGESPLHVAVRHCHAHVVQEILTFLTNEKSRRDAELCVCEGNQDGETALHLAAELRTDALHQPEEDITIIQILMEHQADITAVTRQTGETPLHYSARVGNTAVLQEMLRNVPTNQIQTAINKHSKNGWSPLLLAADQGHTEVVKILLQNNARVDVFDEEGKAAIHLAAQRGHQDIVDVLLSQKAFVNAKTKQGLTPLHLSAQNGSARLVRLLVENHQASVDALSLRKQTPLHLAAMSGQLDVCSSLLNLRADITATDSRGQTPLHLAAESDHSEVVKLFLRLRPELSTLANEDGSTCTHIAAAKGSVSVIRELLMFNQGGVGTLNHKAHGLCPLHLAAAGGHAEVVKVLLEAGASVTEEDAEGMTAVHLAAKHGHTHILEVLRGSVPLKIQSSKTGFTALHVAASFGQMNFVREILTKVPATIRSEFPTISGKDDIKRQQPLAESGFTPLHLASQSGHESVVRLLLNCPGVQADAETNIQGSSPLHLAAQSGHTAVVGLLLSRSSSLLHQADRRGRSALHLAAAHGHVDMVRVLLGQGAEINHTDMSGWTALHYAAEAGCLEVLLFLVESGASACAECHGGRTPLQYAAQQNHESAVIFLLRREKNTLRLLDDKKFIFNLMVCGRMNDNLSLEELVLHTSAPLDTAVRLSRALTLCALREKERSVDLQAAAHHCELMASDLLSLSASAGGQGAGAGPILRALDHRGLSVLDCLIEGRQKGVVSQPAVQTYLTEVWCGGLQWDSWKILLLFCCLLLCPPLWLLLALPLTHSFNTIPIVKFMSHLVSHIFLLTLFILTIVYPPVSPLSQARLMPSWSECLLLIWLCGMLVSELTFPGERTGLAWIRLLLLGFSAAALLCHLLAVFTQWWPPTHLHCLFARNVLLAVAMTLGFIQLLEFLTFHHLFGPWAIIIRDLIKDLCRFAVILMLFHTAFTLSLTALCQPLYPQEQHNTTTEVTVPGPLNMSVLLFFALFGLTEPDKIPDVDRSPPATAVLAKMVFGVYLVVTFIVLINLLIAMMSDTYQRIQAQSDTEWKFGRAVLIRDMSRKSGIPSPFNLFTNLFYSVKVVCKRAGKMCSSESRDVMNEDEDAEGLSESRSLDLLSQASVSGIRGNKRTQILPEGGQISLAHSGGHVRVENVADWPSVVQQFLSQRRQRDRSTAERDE
# Mucolipin-3 = biological target: T6, Mucolipin-3 (Homo sapiens, UniProt Q8TDD5); experiment: Fluorescence counterscreen assay for […] agonists: dose response cell-based high-throughput screening assay to identify agonists of the transient receptor potential channel ML3 (TRPML3). [Related pubchem assays: 1424, 1448 ]; assay type: functional
# T6 sequence (Q8TDD5 whole entry): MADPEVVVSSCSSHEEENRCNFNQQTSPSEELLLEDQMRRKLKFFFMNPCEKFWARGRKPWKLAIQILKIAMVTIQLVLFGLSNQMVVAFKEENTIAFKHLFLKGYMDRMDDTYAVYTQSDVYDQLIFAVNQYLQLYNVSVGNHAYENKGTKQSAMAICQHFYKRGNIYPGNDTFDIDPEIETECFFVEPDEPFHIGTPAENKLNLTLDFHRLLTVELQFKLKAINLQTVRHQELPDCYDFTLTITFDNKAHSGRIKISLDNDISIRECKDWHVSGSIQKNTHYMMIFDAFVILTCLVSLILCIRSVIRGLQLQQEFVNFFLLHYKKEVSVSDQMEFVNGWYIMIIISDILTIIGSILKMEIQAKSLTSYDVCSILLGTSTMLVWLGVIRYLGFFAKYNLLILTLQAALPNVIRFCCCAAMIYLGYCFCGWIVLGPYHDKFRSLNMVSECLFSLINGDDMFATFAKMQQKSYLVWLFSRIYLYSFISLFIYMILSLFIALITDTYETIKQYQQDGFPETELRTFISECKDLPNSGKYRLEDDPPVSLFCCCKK
# [10] = biological target: T7, Heat shock factor protein 1 (Mus musculus, UniProt P38532); experiment: enhancement of HSF1-driven luciferase signal – cell-based, NIH3T3, luminescence, dose retest, confirmation (AID 435004); assay type: functional;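 note: stress induced by proteasome inhibitor MG132 added 30 min after compound; luciferase reporter driven by HSF1 response element in NIH3T3 cells; actives raise luminescence as potentiators of the MG132 stress response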
# T7 sequence (P38532 whole entry): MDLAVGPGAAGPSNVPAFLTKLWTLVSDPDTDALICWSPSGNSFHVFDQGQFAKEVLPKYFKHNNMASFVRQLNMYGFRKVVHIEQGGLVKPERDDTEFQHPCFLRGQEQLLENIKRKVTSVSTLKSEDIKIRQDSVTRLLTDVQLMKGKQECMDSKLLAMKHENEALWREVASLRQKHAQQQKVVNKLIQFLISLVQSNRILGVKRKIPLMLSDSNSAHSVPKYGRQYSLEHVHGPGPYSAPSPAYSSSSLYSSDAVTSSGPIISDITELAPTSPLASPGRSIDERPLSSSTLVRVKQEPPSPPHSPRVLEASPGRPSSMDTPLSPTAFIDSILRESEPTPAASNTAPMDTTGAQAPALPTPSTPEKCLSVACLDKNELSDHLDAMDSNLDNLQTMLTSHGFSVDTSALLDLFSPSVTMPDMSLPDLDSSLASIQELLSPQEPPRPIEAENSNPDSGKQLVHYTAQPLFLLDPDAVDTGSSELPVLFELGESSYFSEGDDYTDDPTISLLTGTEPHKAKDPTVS
# [11] = biological target: UDP-galactopyranose mutase (Mycobacterium tuberculosis, UniProt P9WIQ1); experiment: Inhibitors of Mycobacterium tuberculosis UDP-galactopyranose mutase (UGM) enzyme Measured in Biochemical System Using Plate Reader - 2105-02_Inhibitor_Dose_CherryPick_Activity. [Related pubchem assays (depositor defined):AID504439]
# Sequence of UDP-galactopyranose mutase (P9WIQ1 whole entry): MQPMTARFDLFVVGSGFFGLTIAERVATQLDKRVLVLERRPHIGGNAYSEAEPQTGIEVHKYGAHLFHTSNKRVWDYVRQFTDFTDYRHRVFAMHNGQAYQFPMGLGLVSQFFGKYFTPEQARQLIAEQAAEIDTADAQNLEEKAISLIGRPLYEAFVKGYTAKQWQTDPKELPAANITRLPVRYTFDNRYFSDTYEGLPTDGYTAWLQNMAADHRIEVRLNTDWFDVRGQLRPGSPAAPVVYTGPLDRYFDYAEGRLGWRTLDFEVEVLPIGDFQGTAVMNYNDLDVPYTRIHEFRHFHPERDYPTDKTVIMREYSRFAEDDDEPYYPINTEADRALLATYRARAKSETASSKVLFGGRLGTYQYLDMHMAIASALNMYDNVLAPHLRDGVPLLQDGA
# cells = assay type: functional
# BJ = experiment: growth inhibition of engineered Ras-driven BJ cells – cell-based, alamar blue fluorescence, cherrypicked samples, dose response (AID 2631); assay type: functional; details: Homo sapiens;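 note: confirmatory dose-response assay in RAS-dependent BJ fibroblasts engineered with TERT, LT and ST, with cytotoxicity read by fluorescence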
smiles,measurement,setting,value
O=C(Nc1ccc(N2CCCC2)cc1)c1cccc(-c2cc3ccccc3oc2=O)c1,EC50,Hexokinase HKDC1,13.6 µM (active)
same,EC50,Hexokinase-1,> 80 µM (inactive)
same,IC50,[1],> 80 µM (inactive)
Clc1ccccc1CSc1nnc(-c2ccco2)c(-c2ccco2)n1,IC50,[2],31.2 µM (active)
same,IC50,[3],> 100 µM (not active)
same,IC50,[4],329 nM (active)
same,IC50,[5],19.7 µM (active)
same,IC50,Ephrin type-A receptor 4,2.46 µM (active)
same,IC50,[6],24.2 µM (active)
same,EC50,[7],15.4 µM (active)
same,EC50,[8],15 µM (active)
same,IC50,Large T antigen,54.4 µM (active)
same,IC50,Phospholipase A2,7.53 µM (active)
same,IC50,[9],10.4 µM (active)
same,IC50,Cysteine protease ATG4B,11.4 µM (active)
COc1cc(OC)cc(-c2nnc(SCc3cccc(C(=O)O)c3)o2)c1,IC50,Coagulation factor XII,> 50 µM (inactive)
Cc1cccc(NC(=O)C2CCN(S(=O)(=O)c3c(C)nc(O)nc3O)CC2)c1,EC50,T-cell,8.65 µM (active)
Cc1cc2nc3c(=O)n(CCc4ccccc4)c(=O)[nH]c3nc2cc1N,EC50,Ion channel NompC,3.55 µM (active)
same,EC50,Mucolipin-3,6.23 µM (active)
same,EC50,[10],> 260 µM (inactive)
same,AC50,[11],2.29 µM (active)
CCOC(=O)Cn1c2ccc(F)cc2c2nc(C)sc21,IC50,cells,14.2 µM (active)
same,EC50,Hexokinase HKDC1,59.1 µM (inactive)
same,EC50,Hexokinase-1,56.2 µM (inactive)
CCC1(C)NC(=O)N(CC(=O)N2N=C(c3ccccc3)CC2c2ccc(OC)cc2)C1=O (centres undefined),EC50,T-cell,16.1 µM (active)
COc1ccc2[nH]c3c(NCCC4=CCCCC4)ncnc3c2c1,EC50,BJ,> 133 µM (inactive)
same,EC50,Ion channel NompC,> 29.9 µM (inactive)
same,EC50,Mucolipin-3,> 29.9 µM (not active)
O=C(c1cn(-c2ccccc2)nc1-c1ccncc1)n1nnc2ccccc21,IC50,Coagulation factor XII,0.973 µM (active)
